# Numbers after ± are expanded uncertainties.
# Assay: xn = mol fraction of the nth substance listed
# Conditions: 100 kPa, Liquid; for speed of sound: Frequency=3 MHz, Sing-around technique in a fixed-path interferometer; for mass density: Vibrating tube method
structure (smiles),measurement,setting,value
O=C1CCCCC1 [cyclohexanone] + C1COCCO1,speed of sound,"293.15 K, x2 = 0.0999",1423.2 ± 1.3 m/s
same,speed of sound,"293.15 K, x2 = 0.1548",1419 ± 1.4 m/s
same,speed of sound,"293.15 K, x2 = 0.2064",1415.2 ± 1.4 m/s
same,speed of sound,"293.15 K, x2 = 0.2523",1411.8 ± 1.4 m/s
same,speed of sound,"293.15 K, x2 = 0.3087",1407.8 ± 1.4 m/s
same,speed of sound,"293.15 K, x2 = 0.3412",1405.5 ± 1.4 m/s
same,speed of sound,"293.15 K, x2 = 0.3952",1401.8 ± 1.4 m/s
same,speed of sound,"293.15 K, x2 = 0.4315",1399.3 ± 1.4 m/s
same,speed of sound,"293.15 K, x2 = 0.4875",1395.6 ± 1.4 m/s
same,speed of sound,"293.15 K, x2 = 0.5348",1392.5 ± 1.4 m/s
same,speed of sound,"293.15 K, x2 = 0.5798",1389.7 ± 1.4 m/s
same,speed of sound,"293.15 K, x2 = 0.6145",1387.5 ± 1.4 m/s
same,speed of sound,"293.15 K, x2 = 0.6698",1384.1 ± 1.4 m/s
same,speed of sound,"293.15 K, x2 = 0.7148",1381.5 ± 1.4 m/s
same,speed of sound,"293.15 K, x2 = 0.7682",1378.5 ± 1.4 m/s
same,speed of sound,"293.15 K, x2 = 0.8015",1376.8 ± 1.5 m/s
same,speed of sound,"293.15 K, x2 = 0.8542",1374.1 ± 1.5 m/s
same,speed of sound,"293.15 K, x2 = 0.9054",1371.7 ± 1.5 m/s
same,mass density,"293.15 K, x2 = 0.0999",953.66 ± 1 kg/m3
same,mass density,"293.15 K, x2 = 0.1548",957.29 ± 1 kg/m3
same,mass density,"293.15 K, x2 = 0.2064",960.83 ± 1 kg/m3
same,mass density,"293.15 K, x2 = 0.2523",964.08 ± 1 kg/m3
same,mass density,"293.15 K, x2 = 0.3087",968.21 ± 1 kg/m3
same,mass density,"293.15 K, x2 = 0.3412",970.67 ± 1 kg/m3
same,mass density,"293.15 K, x2 = 0.3952",974.86 ± 1 kg/m3
same,mass density,"293.15 K, x2 = 0.4315",977.76 ± 1 kg/m3
same,mass density,"293.15 K, x2 = 0.4875",982.38 ± 1 kg/m3
same,mass density,"293.15 K, x2 = 0.5348",986.41 ± 1 kg/m3
same,mass density,"293.15 K, x2 = 0.5798",990.36 ± 1 kg/m3
same,mass density,"293.15 K, x2 = 0.6145",993.49 ± 1 kg/m3
same,mass density,"293.15 K, x2 = 0.6698",998.63 ± 1 kg/m3
same,mass density,"293.15 K, x2 = 0.7148",1002.9 ± 1 kg/m3
same,mass density,"293.15 K, x2 = 0.7682",1008.2 ± 1 kg/m3
same,mass density,"293.15 K, x2 = 0.8015",1011.6 ± 1 kg/m3
same,mass density,"293.15 K, x2 = 0.8542",1017.2 ± 1 kg/m3
same,mass density,"293.15 K, x2 = 0.9054",1022.7 ± 1 kg/m3
same,speed of sound,"298.15 K, x2 = 0.0999",1407.2 ± 1.3 m/s
same,speed of sound,"298.15 K, x2 = 0.1548",1402.8 ± 1.4 m/s
same,speed of sound,"298.15 K, x2 = 0.2064",1398.7 ± 1.4 m/s
same,speed of sound,"298.15 K, x2 = 0.2523",1395.1 ± 1.4 m/s
same,speed of sound,"298.15 K, x2 = 0.3087",1390.8 ± 1.4 m/s
same,speed of sound,"298.15 K, x2 = 0.3412",1388.3 ± 1.4 m/s
same,speed of sound,"298.15 K, x2 = 0.3952",1384.3 ± 1.4 m/s
same,speed of sound,"298.15 K, x2 = 0.4315",1381.6 ± 1.4 m/s
same,speed of sound,"298.15 K, x2 = 0.4875",1377.6 ± 1.4 m/s
same,speed of sound,"298.15 K, x2 = 0.5348",1374.2 ± 1.4 m/s
same,speed of sound,"298.15 K, x2 = 0.5798",1371.1 ± 1.4 m/s
same,speed of sound,"298.15 K, x2 = 0.6145",1368.7 ± 1.4 m/s
same,speed of sound,"298.15 K, x2 = 0.6698",1365 ± 1.4 m/s
same,speed of sound,"298.15 K, x2 = 0.7148",1362 ± 1.4 m/s
same,speed of sound,"298.15 K, x2 = 0.7682",1358.7 ± 1.4 m/s
same,speed of sound,"298.15 K, x2 = 0.8015",1356.7 ± 1.4 m/s
same,speed of sound,"298.15 K, x2 = 0.8542",1353.6 ± 1.5 m/s
same,speed of sound,"298.15 K, x2 = 0.9054",1350.8 ± 1.5 m/s
same,mass density,"298.15 K, x2 = 0.0999",949.13 ± 1 kg/m3
same,mass density,"298.15 K, x2 = 0.1548",952.73 ± 1 kg/m3
same,mass density,"298.15 K, x2 = 0.2064",956.23 ± 1 kg/m3
same,mass density,"298.15 K, x2 = 0.2523",959.45 ± 1 kg/m3
same,mass density,"298.15 K, x2 = 0.3087",963.55 ± 1 kg/m3
same,mass density,"298.15 K, x2 = 0.3412",965.97 ± 1 kg/m3
same,mass density,"298.15 K, x2 = 0.3952",970.12 ± 1 kg/m3
same,mass density,"298.15 K, x2 = 0.4315",972.99 ± 1 kg/m3
same,mass density,"298.15 K, x2 = 0.4875",977.54 ± 1 kg/m3
same,mass density,"298.15 K, x2 = 0.5348",981.52 ± 1 kg/m3
same,mass density,"298.15 K, x2 = 0.5798",985.42 ± 1 kg/m3
same,mass density,"298.15 K, x2 = 0.6145",988.51 ± 1 kg/m3
same,mass density,"298.15 K, x2 = 0.6698",993.56 ± 1 kg/m3
same,mass density,"298.15 K, x2 = 0.7148",997.82 ± 1 kg/m3
same,mass density,"298.15 K, x2 = 0.7682",1003 ± 1 kg/m3
same,mass density,"298.15 K, x2 = 0.8015",1006.4 ± 1 kg/m3
same,mass density,"298.15 K, x2 = 0.8542",1011.8 ± 1 kg/m3
same,mass density,"298.15 K, x2 = 0.9054",1017.3 ± 1 kg/m3
same,speed of sound,"303.15 K, x2 = 0.0999",1387 ± 1.3 m/s
same,speed of sound,"303.15 K, x2 = 0.1548",1382.6 ± 1.4 m/s
same,speed of sound,"303.15 K, x2 = 0.2064",1378.5 ± 1.4 m/s
same,speed of sound,"303.15 K, x2 = 0.2523",1374.9 ± 1.4 m/s
same,speed of sound,"303.15 K, x2 = 0.3087",1370.6 ± 1.4 m/s
same,speed of sound,"303.15 K, x2 = 0.3412",1368.1 ± 1.4 m/s
same,speed of sound,"303.15 K, x2 = 0.3952",1364 ± 1.4 m/s
same,speed of sound,"303.15 K, x2 = 0.4315",1361.3 ± 1.4 m/s
same,speed of sound,"303.15 K, x2 = 0.4875",1357.2 ± 1.4 m/s
same,speed of sound,"303.15 K, x2 = 0.5348",1353.8 ± 1.4 m/s
same,speed of sound,"303.15 K, x2 = 0.5798",1350.6 ± 1.4 m/s
same,speed of sound,"303.15 K, x2 = 0.6145",1348.2 ± 1.4 m/s
same,speed of sound,"303.15 K, x2 = 0.6698",1344.4 ± 1.4 m/s
same,speed of sound,"303.15 K, x2 = 0.7148",1341.4 ± 1.4 m/s
same,speed of sound,"303.15 K, x2 = 0.7682",1338 ± 1.4 m/s
same,speed of sound,"303.15 K, x2 = 0.8015",1335.9 ± 1.4 m/s
same,speed of sound,"303.15 K, x2 = 0.8542",1332.7 ± 1.5 m/s
same,speed of sound,"303.15 K, x2 = 0.9054",1329.6 ± 1.5 m/s
same,mass density,"303.15 K, x2 = 0.0999",944.25 ± 1 kg/m3
same,mass density,"303.15 K, x2 = 0.1548",947.83 ± 1 kg/m3
same,mass density,"303.15 K, x2 = 0.2064",951.32 ± 1 kg/m3
same,mass density,"303.15 K, x2 = 0.2523",954.52 ± 1 kg/m3
same,mass density,"303.15 K, x2 = 0.3087",958.59 ± 1 kg/m3
same,mass density,"303.15 K, x2 = 0.3412",960.99 ± 1 kg/m3
same,mass density,"303.15 K, x2 = 0.3952",965.11 ± 1 kg/m3
same,mass density,"303.15 K, x2 = 0.4315",967.96 ± 1 kg/m3
same,mass density,"303.15 K, x2 = 0.4875",972.47 ± 1 kg/m3
same,mass density,"303.15 K, x2 = 0.5348",976.42 ± 1 kg/m3
same,mass density,"303.15 K, x2 = 0.5798",980.28 ± 1 kg/m3
same,mass density,"303.15 K, x2 = 0.6145",983.33 ± 1 kg/m3
same,mass density,"303.15 K, x2 = 0.6698",988.34 ± 1 kg/m3
same,mass density,"303.15 K, x2 = 0.7148",992.55 ± 1 kg/m3
same,mass density,"303.15 K, x2 = 0.7682",997.69 ± 1 kg/m3
same,mass density,"303.15 K, x2 = 0.8015",1001 ± 1 kg/m3
same,mass density,"303.15 K, x2 = 0.8542",1006.4 ± 1 kg/m3
same,mass density,"303.15 K, x2 = 0.9054",1011.7 ± 1 kg/m3
same,speed of sound,"308.15 K, x2 = 0.0999",1367.1 ± 1.3 m/s
same,speed of sound,"308.15 K, x2 = 0.1548",1362.7 ± 1.3 m/s
same,speed of sound,"308.15 K, x2 = 0.2064",1358.7 ± 1.4 m/s
same,speed of sound,"308.15 K, x2 = 0.2523",1355 ± 1.4 m/s
same,speed of sound,"308.15 K, x2 = 0.3087",1350.6 ± 1.4 m/s
same,speed of sound,"308.15 K, x2 = 0.3412",1348.1 ± 1.4 m/s
same,speed of sound,"308.15 K, x2 = 0.3952",1343.9 ± 1.4 m/s
same,speed of sound,"308.15 K, x2 = 0.4315",1341.2 ± 1.4 m/s
same,speed of sound,"308.15 K, x2 = 0.4875",1336.9 ± 1.4 m/s
same,speed of sound,"308.15 K, x2 = 0.5348",1333.5 ± 1.4 m/s
same,speed of sound,"308.15 K, x2 = 0.5798",1330.2 ± 1.4 m/s
same,speed of sound,"308.15 K, x2 = 0.6145",1327.7 ± 1.4 m/s
same,speed of sound,"308.15 K, x2 = 0.6698",1323.8 ± 1.4 m/s
same,speed of sound,"308.15 K, x2 = 0.7148",1320.7 ± 1.4 m/s
same,speed of sound,"308.15 K, x2 = 0.7682",1317.1 ± 1.4 m/s
same,speed of sound,"308.15 K, x2 = 0.8015",1314.9 ± 1.4 m/s
same,speed of sound,"308.15 K, x2 = 0.8542",1311.5 ± 1.5 m/s
same,speed of sound,"308.15 K, x2 = 0.9054",1308.3 ± 1.5 m/s
same,mass density,"308.15 K, x2 = 0.0999",939.34 ± 1 kg/m3
same,mass density,"308.15 K, x2 = 0.1548",942.9 ± 1 kg/m3
same,mass density,"308.15 K, x2 = 0.2064",946.37 ± 1 kg/m3
same,mass density,"308.15 K, x2 = 0.2523",949.56 ± 1 kg/m3
same,mass density,"308.15 K, x2 = 0.3087",953.6 ± 1 kg/m3
same,mass density,"308.15 K, x2 = 0.3412",955.99 ± 1 kg/m3
same,mass density,"308.15 K, x2 = 0.3952",960.08 ± 1 kg/m3
same,mass density,"308.15 K, x2 = 0.4315",962.9 ± 1 kg/m3
same,mass density,"308.15 K, x2 = 0.4875",967.38 ± 1 kg/m3
same,mass density,"308.15 K, x2 = 0.5348",971.29 ± 1 kg/m3
same,mass density,"308.15 K, x2 = 0.5798",975.11 ± 1 kg/m3
same,mass density,"308.15 K, x2 = 0.6145",978.13 ± 1 kg/m3
same,mass density,"308.15 K, x2 = 0.6698",983.08 ± 1 kg/m3
same,mass density,"308.15 K, x2 = 0.7148",987.23 ± 1 kg/m3
same,mass density,"308.15 K, x2 = 0.7682",992.32 ± 1 kg/m3
same,mass density,"308.15 K, x2 = 0.8015",995.58 ± 1 kg/m3
same,mass density,"308.15 K, x2 = 0.8542",1000.8 ± 1 kg/m3
same,mass density,"308.15 K, x2 = 0.9054",1006.2 ± 1 kg/m3

# — the NIST ThermoML archive (doi:10.1021/acs.jced.6b00606)
